From a melting point compilation (Tetko et al.; mined from patent text by program, amines drawn as free bases though some values may be those of a salt)

Structure (SMILES)	melting point [°C]
CC(C)(C)c1cc(-c2nn(-c3ccccc3)c3ncccc23)cc(C(C)(C)C)c1O	174 to 175
OCc1cnoc1-c1ccc(C(F)(F)F)cc1	106 to 107
CCCCCC(CCC(=O)c1ccc(OCC)cc1)C(=O)O (stereo not given)	61
COC(=O)C1CC(C#N)(c2ccc(OC)c(OC)c2)CCC1=O (stereo not given)	102 to 108
NC(=O)c1cc2c(Oc3ccc(Cl)c(F)c3)cncc2s1	227 to 228
Nc1ccccc1C(=O)c1ccncc1	153 to 161
COc1c(Br)cc(N)cc1C(C)=O	93 to 94
Cc1cc2c(cc1C1=NNC(=O)CC1C)NC(=O)C(C)O2 (stereo not given)	190 to 191
CN(C(=O)Cc1ccc2oc(=O)[nH]c2c1)[C@H](CN1CC[C@H](O)C1)c1ccccc1	207 to 208
O=C1c2cccc3cc(F)cc(c23)C(=O)N1O	244 to 247
O=C1C=CC(O)(c2cccs2)C=C1	103
O=C(O)CCOCCCc1ccc(-c2nc(=O)c3ccccc3s2)nc1	145 to 147
Cc1ccc2c(c1)[C@H](Nc1nc(NC=O)nc(C(F)F)n1)[C@@H](C)C2	66
NS(=O)(=O)Cc1nc(-c2ccc(Cl)c(Cl)c2)cs1	187 to 190
CC(C)c1c(Sc2cc(Cl)cc(Cl)c2)nc(COCCO)n1C	67 to 68
CCOC(=O)C(C1c2ccccc2Oc2ccccc21)[N+](=O)[O-] (stereo not given)	89 to 91
CC(=O)CNC(=O)Cc1ccccc1	126
COc1cc(CC#N)c([N+](=O)[O-])cc1C(F)(F)F	103 to 104
Cc1cnc(SCc2cc3c(cc2O)CCCO3)n1C	139 to 140
O=C(CO)OC(=O)CCS	143 to 144
Cc1nc2c(N)nc3cc(OCCNC(=O)C(C)C)ccc3c2n1CC(C)C	205 to 206

Now from value to compound:

melting point [°C]	Structure (SMILES)
113	COc1ccc(CSC(C)(C)C(O)(CO)c2ccc(F)cc2F)cc1 (stereo not given)
> 250	NCCc1ccc(N2CCN(c3ccc(CC(=O)O)cc3)C2=O)cc1
186	COc1ccccc1-c1ccc2cnc(Nc3ccc(N4CCN(CC(N)=O)CC4)c(F)c3)nn12
160 to 161	O=C(O)CCC(=NOCc1ccc(OCc2cn3c(Cl)cccc3n2)cc1)c1ccccc1
186 to 188	CS(=O)(=O)c1ccc(-c2cnn(CC(=O)c3ccc(Cl)cc3)c(=O)c2-c2ccc(F)cc2)cc1
253 to 255	COc1cc(-c2cc(=O)c3cccnc3o2)ccc1O
143	CCOC(=O)c1c(O)c2cccnc2n(Cc2ccccc2)c1=O
94 to 95	Nc1ccc([C@@H](O)CNC[C@H]2CCc3cc(NS(=O)(=O)c4ccc(-n5nnn(CCCC6CCCCC6)c5=O)cc4)ccc3O2)cn1
211 to 213	Cc1ccc2cccc(OCc3c(Cl)ccc(N4CC(=O)NCC4=O)c3Cl)c2n1
209 to 211	CCN(c1cccc(-c2ccnc3c([N+](=O)[O-])cnn23)c1)S(=O)(=O)c1ccc(OC)cc1
224 to 226	Nc1nc2ccccc2n1-c1cccc(-c2nccs2)c1
106 to 108	COc1ccc(Nc2ccccc2C(=O)N2CCCCC2)cc1
123 to 125	CS(=O)(=O)c1ccc(Oc2cc3nc(-c4ccccc4)oc3cc2[N+](=O)[O-])cc1
109 to 111	CN(C)/C=C/C(=O)c1ccc(OCCCCN2C(=O)c3ccccc3C2=O)cc1
110 to 112	CC=NN(C(=O)c1ccccc1)c1ccc(OC)c(F)c1
212	Cc1cc(C)c2nc(NC3CCN(CCC(N)=O)CC3)n(Cc3nc(C)ccc3O)c2c1
232	Cn1c(=O)c2c(ncn2CCN2CCC(c3c[nH]c4ccc(O)cc34)CC2)n(C)c1=O
339 to 341	Cc1ccnc(NC(=O)c2nnc3ccccc3c2O)c1
127 to 130	O=C(C1CCN(c2ccncc2)CC1)N1CCC(Oc2ccc(Br)cc2)CC1
